For one experiment, the system named is TFE3. Put plainly: TFE3 nuclear translocation in iPSC-derived i3Neurons. In kind it is cell-based, human. As to conditions: day 10. How it is done:
hiPSCs were maintained under feeder-free conditions in a 37°C, 5% CO2 tissue culture incubator on tissue culture treated dishes coated with growth factor-reduced Matrigel (Corning, 354,277) and fed every 1–2 days with Essential 8 medium (Life Technologies, A1517001), as needed. Accutase ([…] Technologies, 07920) was used to enzymatically dissociate hiPSCs into single cells, and 0.5 mM EDTA was used for routine dissociation to maintain colony growth. To promote cell survival during passaging, cells were passaged with the ROCK/p160-Rho-associated coiled coil kinase inhibitor Y-27632 ([…]; Selleckchem, S1049). hiPSC-derived i^3Neurons were induced and differentiated according to Fernandopulle et al. and replated on high-content 96-well dishes (PerkinElmer, CellCarrierUltra-96) by day 3. […]
After the required compound incubation, media was removed from the wells and the cells were fixed in 4% paraformaldehyde (PFA; ThermoFisher Scientific/Pierce, 28,908) for 20 min. […] The Harmony image analysis software (Perkin Elmer) was used to identify nuclei TFEB or TFE3 positive nuclei, expressed as a percentage of total cell number (See Figure S2 and S3 for analysis protocols). Mean values and standard deviation of DMSO control wells on the plate were calculated. […]

In a further experiment the test system is CLEAR genes. Put plainly: RT-qPCR of CLEAR gene expression. In kind it is cell-based. Conditions: SH-SY5Y, 1 µM compound, 48 h. The method, then: We assessed autophagic flux by quantifying LC3-II levels using western blotting in compound-treated cells in the presence or absence of the lysosomal inhibitor bafilomycin A1. […] Given the lack of correlation between the ability of the compounds to upregulate CLEAR genes, and changes in LC3-II levels, the action of the compounds was therefore independent of autophagic flux. SH-SY5Y cells were treated with compounds in 12-well or 24-well plates (Corning Costar, […]). Cell pellets were harvested and RNA was extracted using the RNeasy Mini Kit (QIAGEN, 74,104) according to manufacturer's instructions. cDNA was generated from 500 ng RNA using Superscript III Reverse Transcriptase (Thermofisher Scientific, 18,080,085). Expression of the CLEAR genes CTSD, HEXA, LAMP1, CLCN7, ATP6V0A1, SQSTM1, UVRAG and GABARAP were assessed using Fast SYBR Green Master Mix standard protocol (Thermofisher Scientific, 4,309,155), on a StepOnePlusTM Real-Time PCR System (Applied biosystems, Waltham, MA, USA). Primer sequences are shown in Table S7A and were designed in Primer3 or by OriGene Technologies and validated in house for efficiency and specificity.
(Real-time PCR tracks product formation cycle by cycle.)

The target in the next experiment is T1, SRPK1 (Homo sapiens, UniProt Q96SB4).
T1 construct: endogenous in cells; host or cells: SH-SY5Y
Description: KiNativ in-cell kinase binding, SRPK1. As to conditions: SH-SY5Y cells, Labeling Site Lys2. The source says: (§1) As KINOMEscan is an in vitro assay, and as different cell types have variable kinase expression profiles we sought to determine the kinase binding profile in our SH-SY5Y TFEB-relocalization cell model. […] Bound kinases were pulled down and analyzed by mass spectrometry to determine the in situ kinase binding profile for each compound.

For experiment [1], the target named is cellular kinases of SH-SY5Y cells (Homo sapiens, UniProt O14757). Description: biochemical. In kind it is binding. As to conditions: 2µM; SH-SY5Y cells; Labeling Site Lys2; DIKPENLLLDER; read-out: KiNativ in-cell binding, % Inhibition, CHEK1/CHK1.
From the text: as §1

Experiment [2] has as its target T2, cellular kinases of SH-SY5Y cells (Homo sapiens, UniProt O75385).
T2 construct: endogenous in cells; host or cells: SH-SY5Y
Put plainly: biochemical. The experiment is classed as binding. Conditions: 2µM; SH-SY5Y cells; Labeling Site Lys2; DLKPQNILLSNPAGR; read-out: KiNativ in-cell binding, % Inhibition, ULK1.
From the text: as §1

The next experiment addresses MAPK10/JNK3 (Homo sapiens, UniProt P53779). In kind it is binding.
For the next experiment, the target named is STK10/LOK (Homo sapiens, UniProt O94804). In kind it is binding.
For experiment [3], the target named is kinases (KINOMEscan panel) (Homo sapiens, UniProt O14733). The experiment is classed as binding.
Experiment [4] deals with kinases (KINOMEscan panel) (Homo sapiens, UniProt P28482). The experiment is classed as binding.
Experiment [5] has as its target kinases (KINOMEscan panel) (Homo sapiens, UniProt P45983). In kind it is binding.
Experiment [6] deals with kinases (KINOMEscan panel) (Homo sapiens, UniProt P52564). The experiment is classed as binding.
In experiment [7] the target is kinases (KINOMEscan panel) (Homo sapiens, UniProt Q12852). In kind it is binding.
The target of experiment [8] is kinases (KINOMEscan panel) (Homo sapiens, UniProt Q15418). The experiment is classed as binding.
Experiment [9] has as its target kinases (KINOMEscan panel) (Homo sapiens, UniProt Q16659). In kind it is binding.
For experiment [10], the target named is kinases (KINOMEscan panel) (Homo sapiens, UniProt Q8NEB9). The experiment is classed as binding.
Experiment [11] addresses kinases (KINOMEscan panel) (Homo sapiens, UniProt Q8TD08). In kind it is binding.
The target in experiment [12] is kinases (KINOMEscan panel) (Homo sapiens, UniProt Q9NSY1). The experiment is classed as binding.
The target of experiment [13] is kinases (KINOMEscan panel) (Homo sapiens, UniProt Q9NYL2). In kind it is binding.
In experiment [14] the target is kinases (KINOMEscan panel) (Homo sapiens, UniProt Q9Y6E0). In kind it is binding.
kinases (KINOMEscan panel) (Homo sapiens, UniProt Q9Y6E0), sequence (Q9Y6E0 whole entry): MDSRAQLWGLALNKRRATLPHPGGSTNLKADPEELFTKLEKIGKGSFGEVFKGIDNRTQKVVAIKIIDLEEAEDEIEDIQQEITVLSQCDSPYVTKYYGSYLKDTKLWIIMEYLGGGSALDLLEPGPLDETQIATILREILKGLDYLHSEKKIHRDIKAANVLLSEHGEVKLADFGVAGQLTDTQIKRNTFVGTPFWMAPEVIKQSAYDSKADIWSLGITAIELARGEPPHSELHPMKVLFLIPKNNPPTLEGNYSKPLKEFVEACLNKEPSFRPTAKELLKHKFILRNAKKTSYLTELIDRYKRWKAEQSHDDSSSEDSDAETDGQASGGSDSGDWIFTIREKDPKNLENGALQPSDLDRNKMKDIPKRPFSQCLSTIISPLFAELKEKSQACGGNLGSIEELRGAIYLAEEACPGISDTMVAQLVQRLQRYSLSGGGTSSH

kinases (KINOMEscan panel) (Homo sapiens, UniProt Q15418), sequence (Q15418 whole entry): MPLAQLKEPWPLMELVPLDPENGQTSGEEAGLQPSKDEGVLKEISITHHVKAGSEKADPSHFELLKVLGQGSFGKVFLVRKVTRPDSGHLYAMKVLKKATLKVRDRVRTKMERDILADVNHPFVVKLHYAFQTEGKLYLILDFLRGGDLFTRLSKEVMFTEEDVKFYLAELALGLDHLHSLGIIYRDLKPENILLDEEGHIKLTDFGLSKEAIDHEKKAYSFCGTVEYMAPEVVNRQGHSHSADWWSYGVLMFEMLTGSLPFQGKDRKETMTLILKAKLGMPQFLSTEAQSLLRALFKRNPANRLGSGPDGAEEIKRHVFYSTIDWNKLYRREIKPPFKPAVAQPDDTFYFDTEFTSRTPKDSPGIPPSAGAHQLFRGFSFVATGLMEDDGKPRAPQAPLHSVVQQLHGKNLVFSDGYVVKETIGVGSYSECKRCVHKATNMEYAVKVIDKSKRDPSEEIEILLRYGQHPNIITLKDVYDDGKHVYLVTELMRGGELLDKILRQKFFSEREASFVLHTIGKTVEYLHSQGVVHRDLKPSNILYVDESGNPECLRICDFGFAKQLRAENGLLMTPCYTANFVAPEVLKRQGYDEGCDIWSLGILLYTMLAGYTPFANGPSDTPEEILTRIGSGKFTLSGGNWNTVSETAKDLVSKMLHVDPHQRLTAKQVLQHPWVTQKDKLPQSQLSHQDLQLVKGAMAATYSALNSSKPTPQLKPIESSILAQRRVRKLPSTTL
T1 sequence (Q96SB4 whole entry): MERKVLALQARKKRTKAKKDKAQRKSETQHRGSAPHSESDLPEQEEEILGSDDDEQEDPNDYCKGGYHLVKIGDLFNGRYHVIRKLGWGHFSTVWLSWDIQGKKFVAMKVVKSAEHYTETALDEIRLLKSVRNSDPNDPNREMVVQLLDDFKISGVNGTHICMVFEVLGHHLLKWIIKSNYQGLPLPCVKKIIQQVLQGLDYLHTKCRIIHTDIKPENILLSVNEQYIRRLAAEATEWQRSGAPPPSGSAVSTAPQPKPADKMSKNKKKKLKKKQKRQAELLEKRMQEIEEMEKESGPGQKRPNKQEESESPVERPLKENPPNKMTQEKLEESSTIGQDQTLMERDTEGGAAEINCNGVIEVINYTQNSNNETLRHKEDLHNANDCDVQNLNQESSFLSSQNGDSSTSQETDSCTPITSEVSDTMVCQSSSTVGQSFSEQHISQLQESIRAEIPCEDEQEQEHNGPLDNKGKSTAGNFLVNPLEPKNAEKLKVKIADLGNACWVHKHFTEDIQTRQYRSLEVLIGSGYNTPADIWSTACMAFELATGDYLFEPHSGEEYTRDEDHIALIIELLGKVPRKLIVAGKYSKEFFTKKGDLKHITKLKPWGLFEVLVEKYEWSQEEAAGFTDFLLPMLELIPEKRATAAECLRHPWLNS
kinases (KINOMEscan panel) (Homo sapiens, UniProt Q9NSY1), sequence (Q9NSY1 whole entry): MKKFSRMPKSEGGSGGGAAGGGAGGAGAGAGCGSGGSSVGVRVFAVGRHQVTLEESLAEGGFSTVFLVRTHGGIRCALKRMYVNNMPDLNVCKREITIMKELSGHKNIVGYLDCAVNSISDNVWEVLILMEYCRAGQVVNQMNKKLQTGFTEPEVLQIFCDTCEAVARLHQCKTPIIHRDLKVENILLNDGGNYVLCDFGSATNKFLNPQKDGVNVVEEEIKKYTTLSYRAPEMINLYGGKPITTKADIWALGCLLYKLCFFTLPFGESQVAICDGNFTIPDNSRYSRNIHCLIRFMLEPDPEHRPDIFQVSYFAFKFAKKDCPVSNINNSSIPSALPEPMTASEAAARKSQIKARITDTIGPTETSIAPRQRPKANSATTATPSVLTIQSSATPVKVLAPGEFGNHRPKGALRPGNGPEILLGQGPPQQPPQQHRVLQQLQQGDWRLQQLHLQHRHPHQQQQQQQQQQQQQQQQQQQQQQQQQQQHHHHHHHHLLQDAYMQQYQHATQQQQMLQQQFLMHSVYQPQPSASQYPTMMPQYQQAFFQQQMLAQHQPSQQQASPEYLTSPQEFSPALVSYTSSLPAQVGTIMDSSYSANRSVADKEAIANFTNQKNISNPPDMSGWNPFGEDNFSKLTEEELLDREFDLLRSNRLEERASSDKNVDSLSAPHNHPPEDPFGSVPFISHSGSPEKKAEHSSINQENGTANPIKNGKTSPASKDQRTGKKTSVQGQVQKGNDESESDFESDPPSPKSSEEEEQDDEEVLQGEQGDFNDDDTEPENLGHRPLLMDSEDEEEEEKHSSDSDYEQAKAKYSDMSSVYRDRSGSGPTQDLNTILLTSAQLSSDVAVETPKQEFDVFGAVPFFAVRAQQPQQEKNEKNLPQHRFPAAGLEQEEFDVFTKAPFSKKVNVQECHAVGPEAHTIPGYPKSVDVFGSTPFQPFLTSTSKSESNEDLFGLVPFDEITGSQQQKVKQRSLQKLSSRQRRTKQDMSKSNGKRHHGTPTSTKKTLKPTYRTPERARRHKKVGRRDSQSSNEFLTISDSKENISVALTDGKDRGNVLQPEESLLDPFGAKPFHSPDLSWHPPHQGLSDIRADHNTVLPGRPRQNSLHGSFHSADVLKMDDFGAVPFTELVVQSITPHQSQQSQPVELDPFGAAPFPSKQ
kinases (KINOMEscan panel) (Homo sapiens, UniProt P45983), sequence (P45983 whole entry): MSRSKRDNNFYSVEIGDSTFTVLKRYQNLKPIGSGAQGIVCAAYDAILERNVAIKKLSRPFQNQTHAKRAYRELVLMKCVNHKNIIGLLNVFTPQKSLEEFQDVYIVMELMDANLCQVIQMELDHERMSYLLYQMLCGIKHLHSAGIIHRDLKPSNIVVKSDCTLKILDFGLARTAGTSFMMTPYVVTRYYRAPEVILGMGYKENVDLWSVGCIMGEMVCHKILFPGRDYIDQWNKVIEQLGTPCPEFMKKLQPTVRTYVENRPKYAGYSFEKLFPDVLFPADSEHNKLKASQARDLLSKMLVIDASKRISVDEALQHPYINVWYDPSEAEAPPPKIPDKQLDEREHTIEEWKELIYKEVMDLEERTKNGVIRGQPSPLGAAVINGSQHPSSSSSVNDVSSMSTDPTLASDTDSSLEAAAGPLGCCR
kinases (KINOMEscan panel) (Homo sapiens, UniProt Q16659), sequence (Q16659 whole entry): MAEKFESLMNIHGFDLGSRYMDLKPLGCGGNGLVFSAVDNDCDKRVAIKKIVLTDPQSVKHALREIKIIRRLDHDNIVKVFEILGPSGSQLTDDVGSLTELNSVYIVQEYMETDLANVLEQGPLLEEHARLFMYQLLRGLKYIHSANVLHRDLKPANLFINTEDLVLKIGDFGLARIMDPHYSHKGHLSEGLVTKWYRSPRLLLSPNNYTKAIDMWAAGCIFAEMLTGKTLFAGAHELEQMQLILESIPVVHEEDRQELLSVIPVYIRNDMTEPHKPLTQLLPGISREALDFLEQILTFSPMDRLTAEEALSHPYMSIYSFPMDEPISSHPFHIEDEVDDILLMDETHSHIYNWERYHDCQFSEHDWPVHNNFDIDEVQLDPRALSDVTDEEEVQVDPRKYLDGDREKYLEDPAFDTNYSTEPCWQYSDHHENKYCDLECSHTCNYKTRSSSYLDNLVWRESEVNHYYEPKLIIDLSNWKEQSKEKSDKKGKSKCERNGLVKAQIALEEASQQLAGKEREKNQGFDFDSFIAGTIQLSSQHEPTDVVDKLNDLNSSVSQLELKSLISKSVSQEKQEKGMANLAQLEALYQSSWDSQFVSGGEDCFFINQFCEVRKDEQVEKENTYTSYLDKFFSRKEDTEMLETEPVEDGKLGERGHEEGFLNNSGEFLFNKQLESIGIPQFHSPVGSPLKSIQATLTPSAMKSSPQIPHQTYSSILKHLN
kinases (KINOMEscan panel) (Homo sapiens, UniProt P28482), sequence (P28482 whole entry): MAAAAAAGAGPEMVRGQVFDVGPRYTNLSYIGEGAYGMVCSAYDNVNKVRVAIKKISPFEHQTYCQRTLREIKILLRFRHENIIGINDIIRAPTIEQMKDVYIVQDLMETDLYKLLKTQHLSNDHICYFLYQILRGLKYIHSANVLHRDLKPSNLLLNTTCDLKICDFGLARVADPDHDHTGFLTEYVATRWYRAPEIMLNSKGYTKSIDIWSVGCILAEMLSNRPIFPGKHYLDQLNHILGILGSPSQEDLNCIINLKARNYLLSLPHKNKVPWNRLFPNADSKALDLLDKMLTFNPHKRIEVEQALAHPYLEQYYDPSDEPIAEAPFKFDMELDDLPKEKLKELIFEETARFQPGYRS
kinases (KINOMEscan panel) (Homo sapiens, UniProt O14733), sequence (O14733 whole entry): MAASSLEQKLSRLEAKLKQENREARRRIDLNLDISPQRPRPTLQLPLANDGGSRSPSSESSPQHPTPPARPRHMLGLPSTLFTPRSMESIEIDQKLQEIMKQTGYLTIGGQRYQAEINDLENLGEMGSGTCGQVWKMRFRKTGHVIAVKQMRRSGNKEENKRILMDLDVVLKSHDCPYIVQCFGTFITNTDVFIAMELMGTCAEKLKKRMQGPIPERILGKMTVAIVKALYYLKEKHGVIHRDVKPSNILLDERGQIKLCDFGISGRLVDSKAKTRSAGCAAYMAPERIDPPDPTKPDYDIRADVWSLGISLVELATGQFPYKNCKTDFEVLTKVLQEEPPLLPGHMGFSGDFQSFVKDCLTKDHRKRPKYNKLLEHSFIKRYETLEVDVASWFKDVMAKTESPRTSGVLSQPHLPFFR

In the case of `Cc1cccc(-c2nc(Nc3ccc4ncsc4c3)c3ccccc3n2)n1` [NK140], the “Nuclear translocation of TFE3 in i3Neurons (in words)” value with TFE3 is on record as “trend toward upregulation of TFE3 translocation”. Further, in the experiment with CLEAR genes, the “CLEAR gene expression (in words)” value is “upregulation of a number of CLEAR genes”. Moreover, the inhibition at 2 µM is 67.9% at SRPK1, 16% in experiment [1] and -13.4% in [2].

With `Cc1cccc(-c2nc(N(C)c3ccc4ncsc4c3)c3ccccc3n2)n1` [NK-161], the “KINOMEscan MAPK10/JNK3” value at MAPK10/JNK3 is reported as 16. Besides, the “KINOMEscan STK10/LOK” value at STK10/LOK is listed as 19. In [3], the “KINOMEscan MAP2K7/MKK7” value came to 0. For the same molecule, the “KINOMEscan MAPK1/ERK2” value in [4] turned out to be 6. In addition, the “KINOMEscan MAPK8/JNK1” value in experiment [5] is 0. The “KINOMEscan MAP2K6/MEK6” value in [6] is 12. For the same molecule, the “KINOMEscan MAP3K12/DLK” value in experiment [7] worked out at 0. In [8], the “KINOMEscan RPS6KA1/RSK1(Kin.Dom.1-N-terminal)” value worked out at 9 and the “KINOMEscan RPS6KA1/RSK1(Kin.Dom.2-C-terminal)” value is listed as 34. For the same molecule, in experiment [9], the “KINOMEscan MAPK6/ERK3” value was determined as 14. For the same molecule, in experiment [10], the “KINOMEscan PIK3C3/VPS34” value was 0. For the same molecule, in experiment [11], the “KINOMEscan MAPK15/ERK8” value is given as 0. Further, the “KINOMEscan BMP2K/BIKE” value in experiment [12] is recorded as 12. Moreover, the “KINOMEscan MAP3K20/ZAK” value in [13] was 0. In [14], the “KINOMEscan STK24/MST3” value amounted to 0.

The record behind these values is article PMC9851200, “Multiparameter phenotypic screening for endogenous TFEB and TFE3 translocation identifies novel chemical series modulating lysosome function” (Autophagy, 2022).
